The record followed here is ChEMBL document CHEMBL3132822, “Novel 1-(1-benzyl-1H-indol-3-yl)-N,N,N-trimethylmethanaminium iodides are competitive antagonists for the human 42 and 7 nicotinic acetylcholine receptors” (Medchemcomm, 2013).

The species entered for one experiment is Homo sapiens. Kind of experiment: Selectivity ratio of IC50 for human alpha4beta2 nAChR to IC50 for human alpha7 nAChR.
Experiment [1] has as its target T1, Neuronal acetylcholine receptor subunit alpha-7 (Homo sapiens, UniProt P36544). Kind of experiment: Antagonist activity at human alpha7 nAChR expressed in rat GH3 cells assessed as (+/-)-epibatidine-induced Ca2+ influx. Format: cell-based.
Experiment [2] has as its target T2, Neuronal acetylcholine receptor; alpha4/beta2 (Homo sapiens, UniProt P17787+P43681). Kind of experiment: Antagonist activity at human alpha4beta2 nAChR expressed in HEK293 cells assessed as (+/-)-epibatidine-induced Ca2+ influx. Type of experiment: cell-based.
Experiment [3] has as its target T1, Neuronal acetylcholine receptor subunit alpha-7. Kind of experiment: Displacement of [3H]MLA from human alpha7 nAChR.
The target in experiment [4] is T2, Neuronal acetylcholine receptor; alpha4/beta2. Kind of experiment: Displacement of [3H]cytisine from human alpha4beta2 nAChR. Type of experiment: protein-complex assay.
The target is the same in experiment [5]. Kind of experiment: Displacement of [3H]imipramine from human alpha4beta2 nAChR. Format: protein-complex assay.
In experiment [6] the target is T1, Neuronal acetylcholine receptor subunit alpha-7. Kind of experiment: Displacement of [3H]imipramine from human alpha7 nAChR. (In general: Loss of bound radioactivity is the signal in a displacement assay; it reports binding, not function.)

T1 sequence (P36544 whole entry): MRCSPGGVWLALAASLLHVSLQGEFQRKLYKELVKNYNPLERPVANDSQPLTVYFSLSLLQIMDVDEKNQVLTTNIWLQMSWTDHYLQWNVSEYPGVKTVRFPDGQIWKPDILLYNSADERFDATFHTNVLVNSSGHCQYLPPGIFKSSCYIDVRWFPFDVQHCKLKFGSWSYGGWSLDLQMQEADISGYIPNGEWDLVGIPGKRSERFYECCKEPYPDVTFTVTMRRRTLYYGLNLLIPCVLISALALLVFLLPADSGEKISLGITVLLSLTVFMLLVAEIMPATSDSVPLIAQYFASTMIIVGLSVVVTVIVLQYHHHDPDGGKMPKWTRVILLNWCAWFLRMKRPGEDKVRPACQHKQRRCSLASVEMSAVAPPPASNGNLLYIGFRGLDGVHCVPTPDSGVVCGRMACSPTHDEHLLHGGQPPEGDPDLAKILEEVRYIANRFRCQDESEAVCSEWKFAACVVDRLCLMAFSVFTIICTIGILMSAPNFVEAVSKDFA
T2 sequence (P17787 whole entry): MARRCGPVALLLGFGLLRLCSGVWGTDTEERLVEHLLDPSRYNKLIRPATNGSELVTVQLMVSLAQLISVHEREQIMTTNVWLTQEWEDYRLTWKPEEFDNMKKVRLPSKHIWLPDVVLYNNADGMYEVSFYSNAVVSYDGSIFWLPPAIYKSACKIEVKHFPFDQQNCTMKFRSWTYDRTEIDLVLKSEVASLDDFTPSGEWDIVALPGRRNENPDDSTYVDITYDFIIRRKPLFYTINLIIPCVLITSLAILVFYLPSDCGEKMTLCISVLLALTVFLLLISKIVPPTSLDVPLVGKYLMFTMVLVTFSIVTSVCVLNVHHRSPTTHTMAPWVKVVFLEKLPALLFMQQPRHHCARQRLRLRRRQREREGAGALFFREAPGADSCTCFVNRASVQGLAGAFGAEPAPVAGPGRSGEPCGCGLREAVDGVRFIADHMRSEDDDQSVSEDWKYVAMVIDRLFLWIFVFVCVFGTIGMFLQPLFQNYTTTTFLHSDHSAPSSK
T2 sequence (P43681 whole entry): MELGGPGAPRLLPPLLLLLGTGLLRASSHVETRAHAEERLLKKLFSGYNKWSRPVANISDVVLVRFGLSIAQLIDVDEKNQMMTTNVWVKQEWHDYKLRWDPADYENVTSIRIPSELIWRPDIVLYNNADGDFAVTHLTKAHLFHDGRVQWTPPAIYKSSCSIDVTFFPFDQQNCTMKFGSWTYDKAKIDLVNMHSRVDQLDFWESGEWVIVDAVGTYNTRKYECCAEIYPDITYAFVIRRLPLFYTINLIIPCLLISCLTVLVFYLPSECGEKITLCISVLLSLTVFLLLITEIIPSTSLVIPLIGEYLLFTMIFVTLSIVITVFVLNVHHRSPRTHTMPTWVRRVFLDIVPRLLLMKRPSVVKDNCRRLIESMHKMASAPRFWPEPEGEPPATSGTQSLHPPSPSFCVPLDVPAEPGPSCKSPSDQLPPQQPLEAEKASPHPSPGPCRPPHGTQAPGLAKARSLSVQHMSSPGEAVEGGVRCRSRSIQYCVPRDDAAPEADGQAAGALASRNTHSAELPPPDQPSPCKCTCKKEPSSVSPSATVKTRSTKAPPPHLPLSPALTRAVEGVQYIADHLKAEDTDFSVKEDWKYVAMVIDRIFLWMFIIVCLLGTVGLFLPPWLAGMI

As to `C[N+](C)(C)Cc1cn(Cc2ccc3c(c2)OCO3)c2ccccc12`, in the experiment filed under Homo sapiens, the Ratio IC50 stood at 3. Further, the figures for the IC50 in experiment [1] and in experiment [2] were 1.3 µM and 3.9 µM, respectively.
As for `C[n+]1cccc(Cn2cc(C[N+](C)(C)C)c3ccccc32)c1`, the IC50 in experiment [1] was 41.3 µM; in experiment [2], greater than 100 µM.
`COc1ccc(Cn2cc(C[N+](C)(C)C)c3ccccc32)cc1OC`: the Ratio IC50 in the experiment listed under Homo sapiens was 6.7. Moreover, the IC50 turned out to be 2.2 µM in experiment [1] and 14.8 µM in experiment [2].
With `C[N+](C)(C)Cc1cn(Cc2cccc(O)c2)c2ccccc12`, the Ki is 0.6 µM in experiment [3], 1.6 µM in experiment [4], 112 µM in experiment [5] and 145 µM in experiment [6]. Also, in the experiment listed under Homo sapiens, the Ratio IC50 is 14.7. Also, the IC50 came out at 1 µM in experiment [1] and 14.7 µM in experiment [2].
Take `C[N+](C)(C)Cc1cn(Cc2ccc([N+](C)(C)C)cc2)c2ccccc12`: the Ratio IC50 in the experiment listed under Homo sapiens came out at 7.4. For the same molecule, the IC50 came to 2.7 µM in experiment [1] and 20 µM in experiment [2].
Turning to `C[N+](C)(C)Cc1cn(Cc2ccccc2)c2ccccc12`, the Ratio IC50 in the experiment listed under Homo sapiens amounted to 1.9. Also, the IC50 worked out at 2.3 µM in experiment [1] and 4.2 µM in experiment [2].
`COc1ccc(Cn2cc(C[N+](C)(C)C)c3ccccc32)cc1`: the Ratio IC50 in the experiment listed under Homo sapiens was 2.2. Besides, the IC50 in experiment [1] is 2 µM; in experiment [2], 4.4 µM.
Take `COc1cc(Cn2cc(C[N+](C)(C)C)c3ccccc32)ccc1O`: the Ratio IC50 in the experiment listed under Homo sapiens was 4.1. Further, the IC50 in experiment [1] was determined as 2.2 µM; in experiment [2] it was 9.1 µM.
Consider `C[N+](C)(C)Cc1cn(Cc2ccc(O)cc2)c2ccccc12`, for which the Ki was determined as 2.9 µM in experiment [3] and 0.6 µM in experiment [4]. Further, in the experiment listed under Homo sapiens, the Ratio IC50 was 11.3. Further, the IC50 was 2.2 µM in experiment [1] and 24.9 µM in experiment [2].
Turning to `COc1ccc(Cn2cc(C[N+](C)(C)C)c3ccccc32)cc1O`, the Ratio IC50 in the experiment listed under Homo sapiens came out at 2.8. The values for the IC50 in experiment [1] and in experiment [2] were 3.4 µM and 9.5 µM, respectively.

As usually defined, the IC50 is the midpoint of a concentration-inhibition curve. One may read the Ki as a measure of affinity in units of concentration, obtained from inhibition or displacement. Read a low Ki as a stronger hold on the target.
